According to patent US20260144805A1, “CANNABIDIOL COMPOSITIONS FOR USE IN THE TREATMENT OF NEURODEGENERATIVE AND NEUROLOGICAL DISORDERS” (JAZZ PHARMACEUTICALS RESEARCH UK LIMITED, priority 2022, published 2026):

Columns and labels:
[1] = test system: rTg4510 mice; experiment: Open Field (OF) test, locomotor activity in rTg4510 mouse model of Alzheimer's Disease (Example 2; DS = DS-C); assay type: in vivo; settings: for Locomotor activity totals, Mean / Locomotor activity totals, % vs Wild-type / Locomotor activity totals, % vs rTg4510: Doxycycline 200 ppm diet
Procedure: The aim of this study was to evaluate the efficacy of the present drug substance to modulate the agitation-like behaviours in the rTg4510 regulatable mouse model of Alzheimer's Disease (AD). Animals were tested in a behavioural assay, the Open Field (OF) test to measure locomotor activity (LMA). Activity was first assessed at a 21-week-old baseline to determine whether a hyperactive phenotype (to be used as a proxy for agitation) had developed and was further assessed at 2 subsequent ages in acute and chronic efficacy phases.
Ninety male rTg4510 (CC) mice and 15 wild-type (WW) (Tg(Camk2a-tTA)1Mmay Fgf14^Tg(tetO-MAPT*P301L)4510Kha/J, Jax strain #024854, licensed from the Mayo Clinic, USA) were split into 2 cohorts, 4 weeks apart in age; cohort 1 contained 53 mice (8 WW and 45 CC) and cohort 2 contained 52 mice (7 WW and 45 CC). Relative humidity was 55±15% throughout. Mice were housed in individually ventilated cages on a 12 h/12 h light/dark cycle (lights on at 07.00 h; illumination by red light during the dark phase), at an ambient temperature of 24±4° C. with free access to standard rodent maintenance diet and filtered water. Animals were allowed to acclimatise to the above conditions for 7-10 days prior to the study start. All housing groupings were preserved until the mice were approximately 5 months old, at which point they were singly housed.
Doxycycline administration: a subset of animals in cohort 2 (n=15) was administered 2× daily oral bolus doses of doxycycline hyclate (10 mg/kg p.o. in 5% glucose, Sigma Aldrich) at 13 weeks of age, followed by continuous exposure to normal lab chow containing 200 ppm doxycycline (Envigo Teklad 2018 TD.00502 no colourants, irradiated and vacuum-packed). All other animals received Envigo Teklad 2018 diet. All diet was provided ad libitum.
Following this regime, animals were evaluated in Open Field (OF) test, before being deeply anaesthetised at the end of the behavioural testing prior to biofluid sampling and tissue harvesting.
Specifically, the material was solubilised by the addition of 50 μL of 10% glacial acetic acid and making up to volume with 0.9% saline (Aquapharm, Animal Care, York, UK, Lot 21030311).
Drug Substance (DS): (i.e., DS-C, See Table B in Example 1) Dosing volume was 10 mL/kg and DS was formulated at the 150 mg/kg dose in a vehicle of ethanol: Kolliphor HS15: 0.9% saline (1:12:87, w/w/v) which were stored at room temperature and added at approximately 60° C. to form solutions which were subsequently stable at room temperature. All dosing formulations were protected from light whenever possible. Dosing solutions were made fresh on the day of dosing, with lower dose formulations being prepared by dilution from the 150 mg/kg dosing solution at room temperature.
Locomotor activity was assessed by OF test in the light phase of the light-dark cycle at weeks 21, 26 and 31. An automated beam break apparatus (40 cages) was used for the assessment of locomotor activity in rats and mice. Each cage had 4 beams; 1 ‘y’ and 3 ‘x’ which triggered a signal through capacitors when the beam was broken. Signals were collected by data loggers and processed accordingly. All animals were placed in the apparatus and spontaneous activity was assessed for a four-hour period between 0900 and 1300. Animals were then removed from the apparatus and returned to their home cages. LMA assessment was split over 2 consecutive days at each time point.
For locomotor data, a log (x+1) transformation was used. For weeks 21 & 26, means and SEMs were calculated from the transformed data. Analysis was by Friedman's two-way nonparametric ANOVA with treatment and test day as factors to compare each group to the WW animals, and (where appropriate) Doxycycline with the untreated rTg4510 group. For week 30, data excluding the WW and Doxycycline groups for each time period were analysed by robust regression model using M estimation, Huber weighting, using the default parameter c=1.345. […]

[2] = Brain weight of rTg4510 mice (Example 2); assay type: in vivo, mouse; settings: rTg4510 CC mice administered doxycycline; end of study
Procedure: Brain Tissue Collection: Mice were decapitated and the brains rapidly extracted. Brains were briefly washed in saline and blot dried then hemisected, weighed separately and frozen on dry ice before storage at approximately −80° C.
Brain weights were analysed by 2-way analysis of variance with treatment and cohort as factors.

[3] = Weekly body weight of rTg4510 mice (Example 2); assay type: in vivo, mouse; settings: rTg4510 mice fed doxycycline; 15 weeks of age
Procedure: Weekly bodyweight: all animals were weighed weekly until the end of the study.
Weekly body weight data were analysed by mixed linear model with the cohort by week and group by week interactions as fixed effects, animal as the random subject, using an AR (1)+RE correlation structure. Comparisons to the WW and rTg4510 (vehicle) groups for the same week were by the multiple t test.

[4] = test system: harmaline model of Essential Tremor; experiment: Harmaline model of Essential Tremor, subjective tremor score 0-4 (Example 3; DS = DS-D); assay type: in vivo, rat; settings: Propranolol 40 mg/kg i.p.
Procedure: All experiments were carried out in male Sprague Dawley rats (˜250 g). Naïve rats were acclimatised to the procedure room in their home cages up to 7 days following arrival at the test facility, with food and water available ad libitum. All animals were weighed at the beginning of the study and assigned to treatment groups (Vehicle n=6, treatment groups n=12/group).
Animals were dosed and tested as per Table G below, across 3 test days. Treatment groups were equally allocated across the 3 days of testing. The animals received either vehicle, DS at 30, 100 or 150 mg/kg (1 mL/kg, i.p.) or propranolol at 40 mg/kg (5 mL/kg, i.p.) (Compound 1), the animals were then dosed with vehicle or Harmaline at 10 mg/kg (5 mL/kg, i.p.) (Compound 2). The animals received DS at 30, 100 or 150 mg/kg (1 mL/kg, i.p.) 40 or 100 min before harmaline, with the first test point 20 mins later to give a pre-treatment time at first test point of 60 and 120 mins. Propanolol was dosed 30 min before harmaline and tested 20, 40 and 60 mins post-harmaline. At all test points post-harmaline, the animals were observed and given a tremor score of 0-4 (as per Table H).
Drug substance (i.e., DS-D, as described in Example 1) was formulated in 1:12:87 Ethanol, Kolliphor HS & Saline.
Propranolol (40 mg/kg i.p.) served as a disease-relevant comparator.
30 mg/kg drug substance required 1 hr pre-treatment whilst 100 and 150 mg/kg drug substance required 2 hr pre-treatment.
Behavioural observation data was analysed using a repeated measures two-way ANOVA followed by Dunnett's multiple comparison analysis (GraphPad, Prism v9.0.0) (p<0.05 considered significant).

[5] = Week 31, 0-240 minute period, doxycycline-treated group

C[C@H]1c2cccc(O)c2C(=O)C2=C(O)[C@]3(O)C(=O)C(C(N)=O)=C(O)[C@@H](N(C)C)[C@@H]3[C@@H](O)[C@@H]21 [Doxycycline, doxycycline hyclate]
Locomotor activity totals, Mean ([1]; Week 21, 0-30 minutes): 855.0 | Locomotor activity totals, Mean ([1]; Week 21, 0-60 minutes): 1624.9 | Locomotor activity totals, Mean ([1]; Week 21, 0-240 minutes): 3476.4 | Locomotor activity totals, Mean ([1]; Week 21, 30-60 minutes): 749.9 | Locomotor activity totals, Mean ([1]; Week 21, 60-90 minutes): 542.2 | Locomotor activity totals, Mean ([1]; Week 21, 60-120 minutes): 880.1 | Locomotor activity totals, Mean ([1]; Week 21, 90-120 minutes): 283.2 | Locomotor activity totals, Mean ([1]; Week 21, 120-150 minutes): 227.4 | Locomotor activity totals, Mean ([1]; Week 21, 120-180 minutes): 521.1 | Locomotor activity totals, Mean ([1]; Week 21, 150-180 minutes): 181.8 | Locomotor activity totals, Mean ([1]; Week 21, 180-210 minutes): 71.1 | Locomotor activity totals, Mean ([1]; Week 21, 180-240 minutes): 212.8 | Locomotor activity totals, Mean ([1]; Week 21, 210-240 minutes): 52.4 | Locomotor activity totals, Mean ([1]; Week 26, 0-30 minutes): 903.7 | Locomotor activity totals, Mean ([1]; Week 26, 0-60 minutes): 1606.6 | Locomotor activity totals, Mean ([1]; Week 26, 0-240 minutes): 3435.5 | Locomotor activity totals, Mean ([1]; Week 26, 30-60 minutes): 664.6 | Locomotor activity totals, Mean ([1]; Week 26, 60-90 minutes): 489.8 | Locomotor activity totals, Mean ([1]; Week 26, 60-120 minutes): 770.3 | Locomotor activity totals, Mean ([1]; Week 26, 90-120 minutes): 186.7 | Locomotor activity totals, Mean ([1]; Week 26, 120-150 minutes): 157.0 | Locomotor activity totals, Mean ([1]; Week 26, 120-180 minutes): 459.9 | Locomotor activity totals, Mean ([1]; Week 26, 150-180 minutes): 142.2 | Locomotor activity totals, Mean ([1]; Week 26, 180-210 minutes): 185.3 | Locomotor activity totals, Mean ([1]; Week 26, 180-240 minutes): 362.6 | Locomotor activity totals, Mean ([1]; Week 26, 210-240 minutes): 41.3 | Locomotor activity totals, % vs Wild-type ([1]; Week 31, 0-30 minutes): 143.2% | Locomotor activity totals, % vs rTg4510 ([1]; Week 31, 0-30 minutes): 58.7% | Locomotor activity totals, Mean ([1]; Week 31, 0-30 minutes): 744.04 | Locomotor activity totals, % vs Wild-type ([1]; Week 31, 0-60 minutes): 144.7% | Locomotor activity totals, % vs rTg4510 ([1]; Week 31, 0-60 minutes): 47.6% | Locomotor activity totals, Mean ([1]; Week 31, 0-60 minutes): 1216.28 | activity as % of the activity seen in the WW animals [1, 5]: 100.6% | activity as % of the activity seen in the rTg4510(vehicle) animals [1, 5]: 26.2% | Locomotor activity totals, % vs Wild-type ([1]; Week 31, 30-60 minutes): 141.7% | Locomotor activity totals, % vs rTg4510 ([1]; Week 31, 30-60 minutes): 35.3% | Locomotor activity totals, Mean ([1]; Week 31, 30-60 minutes): 445.74 | Locomotor activity totals, % vs Wild-type ([1]; Week 31, 60-90 minutes): 153.3% | Locomotor activity totals, % vs rTg4510 ([1]; Week 31, 60-90 minutes): 37.0% | Locomotor activity totals, Mean ([1]; Week 31, 60-90 minutes): 231.53 | Locomotor activity totals, % vs Wild-type ([1]; Week 31, 60-120 minutes): 176.8% | Locomotor activity totals, % vs rTg4510 ([1]; Week 31, 60-120 minutes): 49.4% | Locomotor activity totals, Mean ([1]; Week 31, 60-120 minutes): 477.89 | Locomotor activity totals, % vs Wild-type ([1]; Week 31, 90-120 minutes): 324.4% | Locomotor activity totals, % vs rTg4510 ([1]; Week 31, 90-120 minutes): 110.8% | Locomotor activity totals, Mean ([1]; Week 31, 90-120 minutes): 165.38 | Locomotor activity totals, % vs Wild-type ([1]; Week 31, 120-150 minutes): 134.8% | Locomotor activity totals, % vs rTg4510 ([1]; Week 31, 120-150 minutes): 63.1% | Locomotor activity totals, Mean ([1]; Week 31, 120-150 minutes): 105.17 | Locomotor activity totals, % vs Wild-type ([1]; Week 31, 150-180 minutes): 135.0% | Locomotor activity totals, % vs rTg4510 ([1]; Week 31, 150-180 minutes): 33.9% | Locomotor activity totals, Mean ([1]; Week 31, 150-180 minutes): 28.13 | Locomotor activity totals, % vs Wild-type ([1]; Week 31, 180-210 minutes): 8.9% | Locomotor activity totals, % vs rTg4510 ([1]; Week 31, 180-210 minutes): 5.6% | Locomotor activity totals, Mean ([1]; Week 31, 180-210 minutes): 1.72 | Locomotor activity totals, % vs Wild-type ([1]; Week 31, 210-240 minutes): 90.8% | Locomotor activity totals, % vs rTg4510 ([1]; Week 31, 210-240 minutes): 117.5% | Locomotor activity totals, Mean ([1]; Week 31, 210-240 minutes): 16.18 | mean brain weight [2]: 408.8 ± 6.1 mg | body weight [3]: 29.14 ± 0.50 g

CC(C)NCC(O)COc1cccc2ccccc12 (stereo not shown) [Propranolol]
deficits induced by harmaline vs vehicle/harmaline group ([4]; 20, 40 and 60 min post-harmaline): significantly attenuated | Tremor Score (median ± IQR) ([4]; 20 mins post-harmaline): 0.0 ± 0.0 | Tremor Score (median ± IQR) ([4]; 40 mins post-harmaline): 0.0 ± 0.0 | Tremor Score (median ± IQR) ([4]; 60 mins post-harmaline): 0.0 ± 0.75
